Measured values taken from US20190218214A1, “Inhibition of BMP Signaling Compounds, Compositions and Uses Thereof” (Vanderbilt University, priority 2016, published 2019).

Key:
AMPK = assay: Selectivity Ki, AMPK; type: biochemical
ALK1 = ALK1 (Homo sapiens, UniProt P37023); assay: Selectivity Ki, ALK1; type: biochemical
ALK4 = biological target: T1, ALK4 (Homo sapiens, UniProt P36896); assay: Selectivity Ki, ALK4; type: biochemical
T1 sequence (P36896 24-505): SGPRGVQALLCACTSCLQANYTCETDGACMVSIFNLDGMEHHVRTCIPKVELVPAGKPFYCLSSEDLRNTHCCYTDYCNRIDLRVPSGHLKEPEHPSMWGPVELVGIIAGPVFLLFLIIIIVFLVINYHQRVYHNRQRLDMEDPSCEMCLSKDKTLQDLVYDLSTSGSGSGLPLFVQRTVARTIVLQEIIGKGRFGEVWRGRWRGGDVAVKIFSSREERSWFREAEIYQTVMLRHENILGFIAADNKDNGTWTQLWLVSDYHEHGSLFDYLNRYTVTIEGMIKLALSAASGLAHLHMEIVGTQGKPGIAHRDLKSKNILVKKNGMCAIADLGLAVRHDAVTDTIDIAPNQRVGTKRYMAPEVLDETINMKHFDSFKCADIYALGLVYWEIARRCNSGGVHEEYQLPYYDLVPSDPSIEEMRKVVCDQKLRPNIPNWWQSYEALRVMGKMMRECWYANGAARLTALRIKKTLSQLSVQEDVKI

hepcidin expression [1] = assay: IRIDA animal model, liver hepcidin mRNA 2 hours after injection; type: in vivo; conditions: Tmprss6−/− mice, 2 hours after injecting (FIG. 13)
Protocol: The efficacy of compounds was shown in an IRIDA animal model. Initially, an exemplary dose and time point was determined in wild type mice. Briefly, liver mRNA and proteins were extracted. Hepcidin and Id1 mRNA expression was measured by real-time PCR and Smad 1-5-8 phosphorylation was assayed by Western blot analysis. FIGS. 10A-10D depict the RT-PCR data for various inflammatory markers in the liver. FIGS. 11A and 11B depict the RT-PCR data for Hamp mRNA and Id1 mRNA expression. FIG. 12A-12C depict the results of the Western blot analysis.

[2] = Plasma protein binding, mouse; type: in vitro ADME; conditions: read-out: Plasma protein binding (% Fu) Mouse
TGFβR2 = TGFβR2 (Homo sapiens, UniProt P37173); assay: Selectivity Ki, TGFβR2; type: biochemical
TGFβR2, sequence (P37173 23-567): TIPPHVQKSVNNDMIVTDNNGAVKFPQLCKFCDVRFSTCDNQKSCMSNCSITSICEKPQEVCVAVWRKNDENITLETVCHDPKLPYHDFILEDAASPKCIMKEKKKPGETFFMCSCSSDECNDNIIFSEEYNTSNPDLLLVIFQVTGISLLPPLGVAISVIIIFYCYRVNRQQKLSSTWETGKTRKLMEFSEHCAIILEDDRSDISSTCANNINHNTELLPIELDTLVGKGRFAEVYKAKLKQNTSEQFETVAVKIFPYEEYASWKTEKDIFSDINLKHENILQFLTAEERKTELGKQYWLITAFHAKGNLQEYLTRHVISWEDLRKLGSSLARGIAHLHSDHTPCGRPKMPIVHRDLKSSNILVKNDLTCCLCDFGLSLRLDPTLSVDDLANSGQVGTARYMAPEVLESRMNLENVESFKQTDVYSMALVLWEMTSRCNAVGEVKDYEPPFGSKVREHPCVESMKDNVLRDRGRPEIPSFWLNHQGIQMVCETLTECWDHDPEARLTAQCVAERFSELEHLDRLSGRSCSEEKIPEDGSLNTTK

BMPR2 = biological target: T2, BMPR2 (Homo sapiens, UniProt Q13873); assay: Selectivity Ki, BMPR2; type: biochemical
T2 sequence (Q13873 27-1038): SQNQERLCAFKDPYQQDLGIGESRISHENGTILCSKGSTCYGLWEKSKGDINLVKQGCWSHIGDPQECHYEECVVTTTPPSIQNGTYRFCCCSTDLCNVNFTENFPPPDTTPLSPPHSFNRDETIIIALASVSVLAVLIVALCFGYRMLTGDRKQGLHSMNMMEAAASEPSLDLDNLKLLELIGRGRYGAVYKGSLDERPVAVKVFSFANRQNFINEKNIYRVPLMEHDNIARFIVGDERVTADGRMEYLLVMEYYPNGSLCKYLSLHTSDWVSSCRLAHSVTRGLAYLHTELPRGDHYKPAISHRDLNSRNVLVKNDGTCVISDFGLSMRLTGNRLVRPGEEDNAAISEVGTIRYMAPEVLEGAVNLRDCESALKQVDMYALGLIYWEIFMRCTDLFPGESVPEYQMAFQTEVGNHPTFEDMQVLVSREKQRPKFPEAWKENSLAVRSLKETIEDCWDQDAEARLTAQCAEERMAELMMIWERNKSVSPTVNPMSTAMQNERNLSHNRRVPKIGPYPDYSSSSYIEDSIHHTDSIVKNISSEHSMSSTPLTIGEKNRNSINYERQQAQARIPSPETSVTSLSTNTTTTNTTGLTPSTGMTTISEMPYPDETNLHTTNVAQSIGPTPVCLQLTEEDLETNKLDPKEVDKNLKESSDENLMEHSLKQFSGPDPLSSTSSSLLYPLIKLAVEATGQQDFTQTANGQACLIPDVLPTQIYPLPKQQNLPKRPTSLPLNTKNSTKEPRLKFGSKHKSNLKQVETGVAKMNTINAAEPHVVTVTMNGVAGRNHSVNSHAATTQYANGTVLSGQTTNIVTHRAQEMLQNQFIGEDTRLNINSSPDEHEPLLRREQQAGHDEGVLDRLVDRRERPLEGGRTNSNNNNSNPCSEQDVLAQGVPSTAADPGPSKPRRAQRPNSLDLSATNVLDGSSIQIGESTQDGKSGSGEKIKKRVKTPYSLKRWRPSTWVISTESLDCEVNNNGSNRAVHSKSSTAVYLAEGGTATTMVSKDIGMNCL

KDR = KDR (Homo sapiens, UniProt P35968); assay: Selectivity Ki, KDR; type: biochemical
KDR, sequence (P35968 20-1356, species assumed): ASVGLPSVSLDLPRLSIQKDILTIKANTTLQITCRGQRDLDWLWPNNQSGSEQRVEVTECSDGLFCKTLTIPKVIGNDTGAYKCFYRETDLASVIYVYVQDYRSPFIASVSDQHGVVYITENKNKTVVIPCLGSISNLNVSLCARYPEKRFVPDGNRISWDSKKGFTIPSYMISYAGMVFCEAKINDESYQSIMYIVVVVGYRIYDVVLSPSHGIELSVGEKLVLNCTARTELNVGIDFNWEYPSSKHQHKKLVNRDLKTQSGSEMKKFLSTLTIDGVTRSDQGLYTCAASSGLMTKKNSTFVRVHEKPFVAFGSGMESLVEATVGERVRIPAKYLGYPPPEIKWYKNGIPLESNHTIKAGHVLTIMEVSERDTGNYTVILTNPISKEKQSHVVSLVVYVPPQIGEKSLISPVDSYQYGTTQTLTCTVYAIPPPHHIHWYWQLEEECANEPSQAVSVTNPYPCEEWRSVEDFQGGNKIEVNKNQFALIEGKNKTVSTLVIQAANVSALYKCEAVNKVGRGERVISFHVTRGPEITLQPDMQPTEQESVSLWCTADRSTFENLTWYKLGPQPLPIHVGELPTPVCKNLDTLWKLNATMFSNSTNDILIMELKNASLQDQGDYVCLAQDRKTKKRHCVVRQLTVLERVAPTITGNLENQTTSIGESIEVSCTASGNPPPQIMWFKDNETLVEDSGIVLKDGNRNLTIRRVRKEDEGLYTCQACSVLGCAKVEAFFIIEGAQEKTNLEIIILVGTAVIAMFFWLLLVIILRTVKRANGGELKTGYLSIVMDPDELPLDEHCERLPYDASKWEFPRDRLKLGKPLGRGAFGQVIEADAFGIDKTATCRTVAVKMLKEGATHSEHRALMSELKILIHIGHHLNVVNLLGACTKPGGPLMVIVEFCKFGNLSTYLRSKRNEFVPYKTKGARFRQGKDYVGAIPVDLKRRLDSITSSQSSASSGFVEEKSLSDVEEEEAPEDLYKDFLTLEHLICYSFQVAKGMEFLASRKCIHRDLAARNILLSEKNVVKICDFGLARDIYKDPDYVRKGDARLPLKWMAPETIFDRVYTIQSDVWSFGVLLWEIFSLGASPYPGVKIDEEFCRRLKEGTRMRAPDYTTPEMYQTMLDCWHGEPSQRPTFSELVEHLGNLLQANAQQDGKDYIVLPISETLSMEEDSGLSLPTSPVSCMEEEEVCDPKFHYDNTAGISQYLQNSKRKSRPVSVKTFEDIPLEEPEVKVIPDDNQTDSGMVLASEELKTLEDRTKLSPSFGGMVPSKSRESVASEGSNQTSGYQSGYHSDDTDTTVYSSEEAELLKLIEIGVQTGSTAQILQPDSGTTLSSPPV

[3] = Plasma protein binding, human; type: in vitro ADME; conditions: read-out: Plasma protein binding (% Fu) Human
[4] = In vitro DMPK intrinsic clearance, mouse; type: in vitro ADME
[5] = In vitro DMPK intrinsic clearance, human; type: in vitro ADME
ALK6 = ALK6 (Homo sapiens, UniProt O00238); assay: Selectivity Ki, ALK6; type: biochemical
ALK6, sequence (O00238 14-502): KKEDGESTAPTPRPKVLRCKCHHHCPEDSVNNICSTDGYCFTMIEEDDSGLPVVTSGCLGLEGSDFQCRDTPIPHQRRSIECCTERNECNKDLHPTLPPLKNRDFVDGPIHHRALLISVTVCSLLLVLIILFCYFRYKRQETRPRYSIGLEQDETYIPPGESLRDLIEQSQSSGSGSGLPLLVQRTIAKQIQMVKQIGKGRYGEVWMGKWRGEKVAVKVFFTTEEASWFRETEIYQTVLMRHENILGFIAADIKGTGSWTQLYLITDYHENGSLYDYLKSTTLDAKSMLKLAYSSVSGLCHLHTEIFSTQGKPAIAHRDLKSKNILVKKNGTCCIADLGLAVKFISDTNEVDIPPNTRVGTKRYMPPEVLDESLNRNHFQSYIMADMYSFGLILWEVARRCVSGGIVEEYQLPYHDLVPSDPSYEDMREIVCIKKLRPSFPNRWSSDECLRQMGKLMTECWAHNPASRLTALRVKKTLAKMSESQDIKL

ALK2 = biological target: T3, ALK2 (Homo sapiens, UniProt Q04771); assay: Selectivity Ki, ALK2; type: biochemical
T3 sequence (Q04771 21-509): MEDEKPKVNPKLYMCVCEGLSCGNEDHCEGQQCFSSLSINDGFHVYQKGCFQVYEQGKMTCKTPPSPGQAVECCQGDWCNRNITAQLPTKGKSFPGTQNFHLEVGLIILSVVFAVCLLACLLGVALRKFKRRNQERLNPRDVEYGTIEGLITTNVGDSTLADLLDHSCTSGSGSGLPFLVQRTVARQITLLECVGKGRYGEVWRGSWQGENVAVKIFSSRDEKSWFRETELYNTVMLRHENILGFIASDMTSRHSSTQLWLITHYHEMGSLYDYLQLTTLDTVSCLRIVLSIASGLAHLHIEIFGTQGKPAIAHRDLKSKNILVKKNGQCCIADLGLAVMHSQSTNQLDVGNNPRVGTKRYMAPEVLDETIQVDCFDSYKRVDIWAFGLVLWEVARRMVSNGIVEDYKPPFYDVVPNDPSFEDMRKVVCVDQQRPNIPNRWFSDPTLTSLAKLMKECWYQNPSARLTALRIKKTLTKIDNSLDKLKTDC

Hepcidin expression [6] = assay: In vitro model of Hepcidin expression (HAMP/HPRT1, alone and with BMP-6); type: cell-based; conditions: as compared to control (FIGS. 6-9)
BMP4 = BMP4 biological assay (Table 3); type: cell-based
ALK3 = ALK3 (Homo sapiens, UniProt P36894); assay: Selectivity Ki, ALK3; type: biochemical
ALK3, sequence (P36894 24-532, species assumed): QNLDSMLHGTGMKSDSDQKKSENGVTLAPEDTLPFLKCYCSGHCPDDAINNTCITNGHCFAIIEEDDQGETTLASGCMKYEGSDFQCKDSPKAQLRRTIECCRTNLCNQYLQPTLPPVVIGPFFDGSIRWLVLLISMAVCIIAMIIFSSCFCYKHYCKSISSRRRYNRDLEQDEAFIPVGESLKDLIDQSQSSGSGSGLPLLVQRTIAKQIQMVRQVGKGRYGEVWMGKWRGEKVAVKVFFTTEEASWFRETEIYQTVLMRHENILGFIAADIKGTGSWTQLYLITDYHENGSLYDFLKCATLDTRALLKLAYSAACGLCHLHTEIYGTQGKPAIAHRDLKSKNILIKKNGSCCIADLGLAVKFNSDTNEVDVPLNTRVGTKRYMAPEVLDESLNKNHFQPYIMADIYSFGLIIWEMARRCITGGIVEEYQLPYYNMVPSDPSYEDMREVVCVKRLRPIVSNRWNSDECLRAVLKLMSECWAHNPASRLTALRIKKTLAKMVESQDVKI

ALK5 = biological target: T4, ALK5 (Homo sapiens, UniProt P36897); assay: Selectivity Ki, ALK5; type: biochemical
T4 sequence (P36897 34-503): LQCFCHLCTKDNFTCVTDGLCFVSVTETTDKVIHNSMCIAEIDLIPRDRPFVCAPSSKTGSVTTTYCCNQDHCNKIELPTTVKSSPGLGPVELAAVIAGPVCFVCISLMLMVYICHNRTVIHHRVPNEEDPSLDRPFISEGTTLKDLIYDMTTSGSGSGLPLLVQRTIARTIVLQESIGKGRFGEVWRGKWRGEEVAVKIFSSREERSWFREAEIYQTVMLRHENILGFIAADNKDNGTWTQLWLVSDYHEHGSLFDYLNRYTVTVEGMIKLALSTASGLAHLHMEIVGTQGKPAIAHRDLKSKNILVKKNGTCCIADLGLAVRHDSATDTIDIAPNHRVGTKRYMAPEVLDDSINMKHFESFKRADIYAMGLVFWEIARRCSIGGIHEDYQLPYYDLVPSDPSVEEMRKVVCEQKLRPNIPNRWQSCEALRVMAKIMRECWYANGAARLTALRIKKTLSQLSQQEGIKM

[7] = In vitro DMPK intrinsic clearance, rat; type: in vitro ADME
[8] = Plasma protein binding, rat; type: in vitro ADME; conditions: read-out: Plasma protein binding (% Fu) Rat
[9] = read-out: Intrinsic clearance hCLHEP
[10] = read-out: Intrinsic clearance hCLINT

ALK1, sequence (P37023 22-503, species assumed): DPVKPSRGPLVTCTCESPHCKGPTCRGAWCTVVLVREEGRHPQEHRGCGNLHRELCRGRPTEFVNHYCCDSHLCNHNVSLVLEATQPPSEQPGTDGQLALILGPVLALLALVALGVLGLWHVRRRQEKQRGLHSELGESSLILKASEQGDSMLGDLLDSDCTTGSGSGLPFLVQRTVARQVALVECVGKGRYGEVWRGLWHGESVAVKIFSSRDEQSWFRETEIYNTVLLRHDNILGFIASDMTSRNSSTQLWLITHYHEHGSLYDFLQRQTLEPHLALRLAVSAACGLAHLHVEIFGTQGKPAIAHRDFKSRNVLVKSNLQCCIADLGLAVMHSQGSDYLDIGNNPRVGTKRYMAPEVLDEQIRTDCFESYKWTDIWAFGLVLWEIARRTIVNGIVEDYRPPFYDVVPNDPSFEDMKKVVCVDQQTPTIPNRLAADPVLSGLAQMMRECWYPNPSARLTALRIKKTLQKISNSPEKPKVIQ

Row | Ki (ALK1) [nM] | fraction unbound [2] | fraction unbound [3] | CLint scaled [5, 9] [mL/min/kg] | CLint scaled [5, 10] [mL/min/kg] | Ki (ALK2) [nM] | IC50 (BMP4) [nM] | Ki (ALK3) [nM] | Structure (SMILES) | also measured
1 | 4280 | 0.058 | 0.012 | 19.6 | 294 | 338 | 185 | < 5.1 | COc1ccc2nc(C)cc(-c3cnc4cc(-c5ccc(N6CCN(C(C)=O)CC6)cc5)ccn34)c2c1 [Compound 48] | Ki (AMPK): 8.7 µM; Ki (ALK4): 144 nM; Liver hepcidin mRNA expression (hepcidin expression [1]): reduction of hepcidin expression; Ki (TGFβR2): 196 nM; Ki (BMPR2): > 30 µM; Ki (KDR): 8.73 µM; CLint scaled ([4]; read-out: Intrinsic clearance mCLHEP): 71.5 mL/min/kg; CLint scaled ([4]; read-out: Intrinsic clearance mCLINT): 349 mL/min/kg; Ki (ALK6): 965 nM; Hepcidin expression (Hepcidin expression [6]): reduced Hepcidin expression as compared to control; Ki (ALK5): 319 nM
2 | 179 | 0.009 | 0.021 | 6.1 | 8.6 | 7.2 | 392 | 34.6 | Cc1cc(-c2cnc3cc(-c4ccc(C5CCN(C(C)C)CC5)cc4)ccn23)c2cc(F)ccc2n1 [Compound 168] | CLint scaled ([7]; read-out: Intrinsic clearance rCLHEP): 14.5 mL/min/kg; CLint scaled ([7]; read-out: Intrinsic clearance rCLINT): 18.2 mL/min/kg; fraction unbound [8]: 0.014
